# Measured values as given in patent publication US7432398B2, “Inorganic acid salts of sibutramine” (CJ Corporation, priority 2005, dated 2008).
# Where a name gives a salt, the structure may show the parent alone.
# Tests used:
# [1] = Evaluation of hygroscopicity: water content (K.F.) after exposure to humid conditions; type: physicochemical; settings: for change in water content under humid conditions: 75% and 90% RH, up to 1 week
# Protocol: Then, the water content (K.F. water %) of the samples was measured.
# [2] = Light stability test, fluorescent light at 25° C., ICH chamber (HPLC content); type: physicochemical
# Protocol: A light stability test was performed as follows.
# [3] = Stability on stringent 60° C. heat treatment (HPLC content); settings: for chemical stability at high temperature: 60° C. heat treatment
# Protocol: The inorganic acid salts of sibutramine, prepared in Examples 1, 2 and 3, and sibutramine hydrochloride monohydrate were exposed to a stringent 60° C. heat treatment.
# HPLC was performed under the following conditions. Wavelength of UV detection: 225 nm
# Column: octadecyl silica gel, C18 (4.6×150 mm, 5 μm)
# [4] = Evaluation of solubility in solutions having various pH values
# Description: In Table 8, the solubility is expressed as milligrams (mg) of sibutramine dissolved per milliliter (ml) of solution.
# [5] = 75% relative humidity, 25 °C, 1 week
# [6] = 75% relative humidity, 25 °C, 3 days
# [7] = 90% relative humidity, 25 °C, 1 week
# [8] = 90% relative humidity, 25 °C, 3 days
# [9] = fluorescent light, 25° C., 1 wk
# [10] = fluorescent light, 25° C., 2 wks
# [11] = fluorescent light, 25° C., 4 wks
Molecule,change in water content under humid conditions [1],"water content (K.F. water %) [1, 5] [%]","water content (K.F. water %) [1, 6] [%]","water content (K.F. water %) [1, 7] [%]","water content (K.F. water %) [1, 8] [%]",water content (K.F. water %) ([1]; Initial) [%],content (HPLC) on exposure to fluorescent light ([2]; Initial),"content (HPLC) on exposure to fluorescent light [2, 9]","content (HPLC) on exposure to fluorescent light [2, 10]","content (HPLC) on exposure to fluorescent light [2, 11]",chemical stability at high temperature [3],"content (HPLC) on 60° C. heat treatment ([3]; 60° C., 1 wk)","content (HPLC) on 60° C. heat treatment ([3]; 60° C., 2 wks)","content (HPLC) on 60° C. heat treatment ([3]; 60° C., 4 wks)",content (HPLC) on 60° C. heat treatment ([3]; Initial),other results
sibutramine phosphate monohydrate [Sibutramine phosphate hydrate],almost no change in water content,4.25,4.24,4.26,4.25,4.25,1.000,1.000,0.999,0.999,good chemical stability,1.000,0.999,1.000,1.000,
sibutramine bromate,almost no change in water content,0.09,0.09,0.08,0.08,0.09,1.000,1.000,0.999,0.999,good chemical stability,0.999,1.000,0.999,1.000,"solubility (mg of sibutramine dissolved per ml of solution) ([4]; DW (distilled water), dissolved at 37° C.): 12.78 mg/mL; solubility (mg of sibutramine dissolved per ml of solution) ([4]; pH 1.2, dissolved at 37° C.): 12.43 mg/mL; solubility (mg of sibutramine dissolved per ml of solution) ([4]; pH 4.0, dissolved at 37° C.): 3.64 mg/mL; solubility (mg of sibutramine dissolved per ml of solution) ([4]; pH 5.3, dissolved at 37° C.): 8.96 mg/mL; solubility (mg of sibutramine dissolved per ml of solution) ([4]; pH 6.8, dissolved at 37° C.): 11.08 mg/mL; solubility (mg of sibutramine dissolved per ml of solution) ([4]; pH 7.4, dissolved at 37° C.): 12.41 mg/mL"
"CC(C)CC(N(C)C)C1(c2ccc(Cl)cc2)CCC1 (stereo not shown) [Sibutramine HCl hydrate, sibutramine hydrochloride monohydrate, reference compound]",almost no change in water content,5.5,5.49,5.49,5.5,5.5,1.000,1.000,0.999,0.999,good chemical stability,1.000,0.999,0.999,1.000,"light stability ([2]; fluorescent light, 25° C., content by HPLC): good light stability"
sibutramine hydrogen sulfate,almost no change in water content,0.01,0.02,0.03,0.03,0.02,1.000,1.000,1.000,0.999,good chemical stability,1.000,0.999,0.999,1.000,
